The values below come from patent EP0409410B1, “Indenoindole compounds” (UNIVERSITY OF BATH, priority 1989, dated 1991).

Each structure is given as a SMILES string.

One assay has as its system ascorbate/Fe²⁺-dependent lipid peroxidation. Description: Ascorbate/Fe²⁺-dependent lipid peroxidation (2-thiobarbituric acid-reactive material). It counts as biochemical. The note with it: concentration required to inhibit lipid peroxidation by 50%; 200 µg/ml soy bean phospholipid, 10 µM iron, 100 µM ascorbic acid, 0.1 M KPi pH 7.4, room temperature, 30 min. The source says: (§1) The most remarkable feature of the compounds of the invention is their efficacy as free-radical scavengers or antioxidants. An assay system measuring the concentration of the compounds of formulas (IA) and (IB) required to inhibit lipid peroxidation by 50% (IC₅₀) was used. Other assays described below are the red blood cell fragility test used for measuring membrane stabilisation by indenoindoles (Table 2), and protection by indenoindoles against cytotoxicity of N-methyl-N¹-nitro-N-nitrosoguanidine (MNNG) in rat hepatocytes (Table 3). MNNG is a highly cytotoxic agent, the mechanism of action of which may involve a radical-mediated membrane destabilization.
For the ferrous/ascorbate lipid peroxidation system, 6.25 ml of 0.1 M potassium phosphate buffer (KPi), pH 7.4, was added to 12.5 mg dried soy bean phospholipids. After flushing with argon for 2 min, the suspension was sealed with five layers of Parafilm and sonicated until the suspension was translucent. The final reaction mixture was composed of 200 µg/ml phospholipid, 10 µM FeNH₄ (SO₄)₂ or Fe(NH₄)₂(SO₄)₂, and 100 µM ascorbic acid in 0.1 M KPi (pH 7.4), and the antioxidant to be tested in acetone or DMSO. The volume of vehicle never exceeded 1% of the total volume. The reaction was initiated by the addition of ascorbic acid plus iron. The reaction was continued at room temperature in a shaking water bath for 30 min and then stopped by the addition of […] of 0.5 M butylated hydroxytoluene in DMSO. The above procedure and the subsequent determination of 2-thiobarbituric acid-reactive material is described in: Shertzer, H.G. et al, Biochem. Pharmacol. 37, 333 (1988). […]
In turn, `COc1ccc2c(c1)[C@H]1Cc3c(cc(C)c(OC)c3C)[C@H]1N2` (relative stereo) [2,8-Dimethoxy-1,3,dimethyl-THII, cis-4b,5,9b,10-Tetrahydro-2,8-dimethoxy-1,3-dimethylindeno[1,2-b]indole] returned a pIC₅₀ of 8.1.

`CCN(CC)c1ccc2c(c1)C[C@@H]1c3ccccc3N[C@H]21` (relative stereo) [2-Diethylamino-THII, cis-4b,5,9b,10-Tetrahydro-2-(N,N-Diethylamino)-indeno[1,2-b]indole] yielded a pIC₅₀ of 7.2.

In turn, `Cc1cc2c(c(C)c1O)C[C@@H]1c3ccccc3N[C@H]21` (relative stereo) [2-Hydroxy-1,3-dimethyl-THII, cis-4b,5,9b,10-Tetrahydro-2-hydroxy-1,3-dimethylindeno[1,2-b]indole] yielded a pIC₅₀ of 7.9.

Molecule `COc1c(C)cc2c(c1C)C[C@@H]1c3ccccc3N[C@H]21` (relative stereo) [2-Methoxy-1,3-dimethyl-THII, cis-4b,5,9b,10-Tetrahydro-2-methoxy-1,3-dimethylindeno[1,2-b]indole] came in with a pIC₅₀ of 7.2.

The molecule `Cc1ccc2c(c1)[C@@]1(C)Cc3ccccc3[C@@]1(C)N2C` (relative stereo) [4b,5,8,9b-Tetramethyl-THII, cis-4b,5,9b,10-tetrahydro-4b,5,8,9b-tetramethylindeno[1,2-b]indole] displayed a pIC₅₀ of 6.8.

`Cc1cc(C)c2c(c1)[C@@]1(C)Cc3ccccc3[C@@]1(C)N2` (relative stereo) [4b,6,8,9b-Tetramethyl-THII, cis-4b,5,9b,10-Tetrahydro-4b,6,8,9b-tetramethylindeno[1,2-b]indole] came in with a pIC₅₀ of 7.4.

`Cc1ccc2c(c1)[C@@]1(C)Cc3ccccc3[C@@]1(C)N2` (relative stereo) [4b,8,9b-Trimethyl-THII, cis 4b,5,9b,10-Tetrahydro-4b,8,9b-trimethylindeno[1,2-b]indole] registered a pIC₅₀ of 7.6.

`Cc1cc(C)c2c(c1)[C@H]1Cc3ccccc3[C@H]1N2` (relative stereo) [6,8-Dimethyl-THII, cis-4b,5,9b,10-Tetrahydro-6,8-dimethylindeno[1,2-b]indole] had a pIC₅₀ of 7.3.

The molecule `Fc1ccc2c(c1)[C@H]1Cc3ccccc3[C@H]1N2` (relative stereo) [8-Fluoro-THII, cis-4b,5,9b,10-Tetrahydro-8-fluoroindeno[1,2-b]indole] returned a pIC₅₀ of 7.5.

The molecule `CC(C)c1ccc2c(c1)[C@@]1(C)Cc3ccccc3[C@@]1(C)N2` (relative stereo) [8-Isopropyl-4b,9b-dimethyl, cis-4b,5,9b,10-Tetrahydro-4b,9b-dimethyl-8-isopropylindeno[1,2-b]indole] showed a pIC₅₀ of 7.7.

Take `CC(C)c1ccc2c(c1)[C@H]1Cc3ccccc3[C@@]1(C)N2` (relative stereo) [8-Isopropyl-4b-methyl-THII, cis-4b,5,9b,10-Tetrahydro-4b-methyl-8-isopropylindeno-[1,2-b]indole]: the pIC₅₀ worked out at 7.7.

Molecule `CC(C)c1ccc2c(c1)[C@H]1Cc3ccccc3[C@H]1N2` (relative stereo) [8-Isopropyl-THII, cis-4b,5,9b,10-Tetrahydro-8-iso-propylindeno[1,2-b]indole] showed a pIC₅₀ of 7.3.

In the case of `COc1cc(C)c2c(c1)[C@H]1Cc3ccccc3[C@H]1N2` (relative stereo) [8-Methoxy-6-methyl-THII, cis-4b,5,9b,10-Tetrahydro-8-methoxy 6-methylindeno[1,2-b]indole], the pIC₅₀ is given as 8.0.

For the molecule `Cc1ccc2c(c1)[C@H]1Cc3ccccc3[C@H]1N2` (relative stereo) [8-Methyl-THII, cis-4b,5,9b,10-Tetrahydro-8 methylindeno[1,2-b]indole], the pIC₅₀ is on record as 7.1.

`CC(C)c1ccc2c(c1)[C@@H]1c3ccccc3C[C@@H]1N2` (relative stereo) [9-Isopropyl-iso-THII, cis-5,5a,6,10b-Tetrahydro-9-isopropylindeno[2,1-b]indole] had a pIC₅₀ of 7.4.

On to `COc1ccc2c(c1)[C@@H]1c3ccccc3C[C@@H]1N2` (relative stereo) [9-Methoxy-iso-THII, cis-5,5a,6,10b-Tetrahydro-9-methoxyindeno[2,1-b]indole], for which the pIC₅₀ is on record as 7.7.

For `CC1(C)c2ccccc2[C@H]2Nc3ccccc3[C@H]21` (relative stereo) [10,10-Dimethyl-THII, cis-4b,5,9b,10-Tetrahydro-10,10-dimethylindeno [1,2-b] indole], the pIC₅₀ came out at 6.9.

For the molecule `CC12Cc3ccccc3C1(C)Nc1ccccc12` (stereo not drawn) [4b,9b-Dimethyl-THII, cis-4b,5,9b,10-Tetrahydro-4b,9b-dimethylindenol[1.2-b]indole], the pIC₅₀ was 7.2.

The molecule `CC12Nc3ccccc3C1Cc1ccccc12` (stereo not drawn) [4b-Methyl-THII, cis-4b,5,9b,10-Tetrahydro-4b-methylindeno[1,2-b]inole] had a pIC₅₀ of 7.1.

In turn, `Cc1ccc2c(c1)C1Cc3ccccc3C1N2C` (stereo not drawn) [5,8-Dimethyl-THII, cis-4b,5,9b,10-Tetrahydro-5,8-dimethylindenol[1,2-b]indole] came in with a pIC₅₀ of 6.4.

As for `CN1c2ccccc2[C@H]2c3ccccc3C[C@H]21` [6-Methyl-iso-THII, cis-5,5a,6,10b-Tetrahydro-methylindeno[2.1-b]indole], the pIC₅₀ stood at 6.1.

`CCN(CC)c1ccc2c(c1)C1Cc3ccccc3C1N2CC` (stereo not drawn) [8-Diethylamino-5-ethyl-THII, cis-4b,5,9b,10-Tetrahydro-5-ethyl-8-(N.N-diethylamino)-indeno[1,2-b]indole] gave a pIC₅₀ of 7.1.

The molecule `COc1ccc2c(c1)C1Cc3ccccc3C1N2C` (stereo not drawn) [8-Methoxy-5-methyl-THII, cis-4b.5.9b,10-Tetrahydro-8-methoxy-5-methylindeno[1,2-b]indole] showed a pIC₅₀ of 7.0.

Consider `CC12Cc3ccccc3C1Nc1ccccc12` (stereo not drawn) [9b-Methyl-THII, cis-4b,5,9b,10-Tetrahydro-9b-methylindeno [1.2-b]-indole], for which the pIC₅₀ stood at 7.0.

In turn, `Cc1c(C)c2c(c(C)c1O)CCC(C)(CCCC(C)CCCC(C)CCCC(C)C)O2` (stereo not drawn) [α-Tocopherol (Vitamin E), α-Tocopherol, reference compound] showed a pIC₅₀ of 5.0.

The next assay concerns red blood cells. Description: Red blood cell fragility test (membrane stabilization, protection from osmolysis). It counts as cell-based, Rats. The settings on record: red blood cell fragility protective index value: linear regression slope, percentage protection against osmolysis per µM protecting agent; rat blood, absorbance at 656 nm.
Text: as §1
The membrane stabilization effect of indenoindoles was assayed by the red blood cell fragility test. Rats were anesthesized With 65 mg pentobarbital per kg body weight by i.p. injection. Blood samples were removed into a heparinized syringe from the left ventricle and diluted 20-fold with buffer containing 140 mM NaCl, 10 mM sodium citrate and 5 mM glucose (pH 7.4) at 0°C. Diluted blood was kept on ice. A 0.75 ml aliquot of blood was added to a 4 ml cuvette containing 10 µl DMSO or 10 µl of the antioxidant dissolved in DMSO vehicle. After 1 min of gentle swirling, 0.75 ml of 0.9 % NaCl or H₂O were added to the cuvette by forceful pipetting, and the absorbance at 656 nm was recorded with a Beckman DU-70 spectrophotometer. When H₂O was added in the absence of a stabilizing agent, absorbance decreased wtihin 15 sec to 0.8. Addition of NaCl instead of H₂O gave a time-independent absorbance of 2.2. In the presence of increasing concentrations of stabilizing chemicals, the absorbance decrease observed after the addition of water was diminished. The % protection from osmolysis was obtained from the equation [E(2.2- 0.8) - A/2.2-0.8)] x 100% [formula] , where A=2.2 minus the absor bance decrease when water is added in the presence of a known concentration of chemical. The % protection is then plotted against several concentrations of the chemical being treated. The red blood cell fragility protective index value (RBC-PIV) is the linear regression slope of this plot, expressed as the percentage protection against osmolysis per µM protecting agent. […]
As for `COc1ccc2c(c1)[C@H]1Cc3ccccc3[C@H]1N2` (relative stereo) [8-Methoxy-THII, cis-4b,5,9b,10-Tetrahydro-8-methoxyindeno[1,2-b]indole], the RBC-PIV was found to be 0.21 %/µM.

The molecule `Cc1c(C)c2c(c(C)c1O)CCC(C)(CCCC(C)CCCC(C)CCCC(C)C)O2` (stereo not drawn) [α-Tocopherol (Vitamin E), α-Tocopherol, reference compound] yielded an RBC-PIV of 0.10 %/µM.
